Legend:
FLK-1 receptor = target: T1, FLK-1 receptor (Mus musculus, UniProt P35918); test: FLK-1 ELISA (kinase activity of the FLK-1 receptor in cells engineered to express Flk-1); assay type: cell-based; conditions: NIH3T3 C7#3 cells (FLK-1 expressing), VEGF stimulated
T1 construct: expressed in transfected cells; host or cells: NIH3T3 C7#3 cells
Experimental: An ELISA assay is conducted to measure the kinase activity of the FLK-1 receptor and more specifically, the inhibition or activation of TK activity on the FLK-1 receptor. Specifically, the following assay can be conducted to measure kinase activity of the FLK-1 receptor in cells genetically engineered to express Flk-1.
Materials. The following reagents and supplies are used: • a. Corning 96-well ELISA plates (Corning Catalog No. 25805-96); • b. Cappel goat anti-rabbit IgG (catalog no. 55641); • c. PBS (Gibco Catalog No. 450-1300EB); • d. TBSW Buffer (50 mM Tris (pH 7.2), 150 mM NaCl and 0.1% Tween-20); • e. Ethanolamine stock (10% ethanolamine (pH 7.0), stored at 4° C.); • f. HNTG buffer (20 mM HEPES buffer (pH 7.5), 150 mM NaCl, 0.2% Triton X-100, and 10% glycerol); • g. EDTA (0.5 M (pH 7.0) as a 100× stock); • h. Sodium orthovanadate (0.5 M as a 100× stock); • i. Sodium pyrophosphate (0.2 M as a 100× stock); • j. NUNC 96 well V bottom polypropylene plates (Applied Scientific Catalog No. AS-72092); • k. NIH3T3 C7#3 Cells (FLK-1 expressing cells); • l. DMEM with 1× high glucose L-Glutamine (catalog No. 11965-050); • m. FBS, Gibco (catalog no. 16000-028); • n. L-glutamine, Gibco (catalog no. 25030-016); • o. VEGF, PeproTech, Inc. (catalog no. 100-20)(kept as 1 μg/100 μL stock in Milli-Q dH2O and stored at −20° C.; • p. Affinity purified anti-FLK-1 antiserum; • q. UB40 monoclonal antibody specific for phosphotyrosine (see, Fendley, et al., 1990, Cancer Research50:1550-1558); • r. EIA grade Goat anti-mouse IgG-POD (BioRad catalog no. 172-1011); • s. 2,2-azino-bis(3-ethylbenz-thiazoline-6-sulfonic acid (ABTS) solution (100 mM citric acid (anhydrous), 250 mM Na2HPO4 (pH 4.0), 0.5 mg/mL ABTS (Sigma catalog no. A-1888)), solution should be stored in dark at 4° C. until ready for use; • t. H2O2 (30% solution) (Fisher catalog no. H325); • u. ABTS/H2O2 (15mL ABTS solution, 2 μL H2O2) prepared 5 minutes before use and left at room temperature; • v. 0.2 M HCl stock in H2O; • w. dimethylsulfoxide (100%)(Sigma Catalog No. D-8418); and • y. Trypsin-EDTA (Gibco BRL Catalog No. 25200-049).
Protocol. The following protocol can be used for conducting the assay:
1. Coat Corning 96-well ELISA plates with 1.0 μg per well Cappel Anti-rabbit IgG antibody in 0.1 M Na2CO3 pH 9.6. Bring final volume to 150 μL per well. Coat plates overnight at 4° C. Plates can be kept up to two weeks when stored at 4° C.
2. Grow cells in Growth media (DMEM, supplemented with 2.0 mM L-Glutamine, 10% FBS) in suitable culture dishes until confluent at 37° C., 5% CO2.
3. Harvest cells by trypsinization and seed in Corning 25850 polystyrene 96-well round bottom cell plates, 25.000 cells/well in 200 μL of growth media.
4. Grow cells at least one day at 37° C., 5% CO2.
5. Wash cells with D-PBS 1×.
6. […]

human EGF-R = target: T2, human EGF-R (Homo sapiens, UniProt P00533); test: EGF Receptor ELISA (EGF receptor kinase activity in cells engineered to express human EGF-R); assay type: cell-based; conditions: NIH 3T3/C7 cell line, EGF stimulated
T2 construct: expressed in transfected cells; host or cells: NIH 3T3/C7 cell line
T2 sequence (P00533 25-1210): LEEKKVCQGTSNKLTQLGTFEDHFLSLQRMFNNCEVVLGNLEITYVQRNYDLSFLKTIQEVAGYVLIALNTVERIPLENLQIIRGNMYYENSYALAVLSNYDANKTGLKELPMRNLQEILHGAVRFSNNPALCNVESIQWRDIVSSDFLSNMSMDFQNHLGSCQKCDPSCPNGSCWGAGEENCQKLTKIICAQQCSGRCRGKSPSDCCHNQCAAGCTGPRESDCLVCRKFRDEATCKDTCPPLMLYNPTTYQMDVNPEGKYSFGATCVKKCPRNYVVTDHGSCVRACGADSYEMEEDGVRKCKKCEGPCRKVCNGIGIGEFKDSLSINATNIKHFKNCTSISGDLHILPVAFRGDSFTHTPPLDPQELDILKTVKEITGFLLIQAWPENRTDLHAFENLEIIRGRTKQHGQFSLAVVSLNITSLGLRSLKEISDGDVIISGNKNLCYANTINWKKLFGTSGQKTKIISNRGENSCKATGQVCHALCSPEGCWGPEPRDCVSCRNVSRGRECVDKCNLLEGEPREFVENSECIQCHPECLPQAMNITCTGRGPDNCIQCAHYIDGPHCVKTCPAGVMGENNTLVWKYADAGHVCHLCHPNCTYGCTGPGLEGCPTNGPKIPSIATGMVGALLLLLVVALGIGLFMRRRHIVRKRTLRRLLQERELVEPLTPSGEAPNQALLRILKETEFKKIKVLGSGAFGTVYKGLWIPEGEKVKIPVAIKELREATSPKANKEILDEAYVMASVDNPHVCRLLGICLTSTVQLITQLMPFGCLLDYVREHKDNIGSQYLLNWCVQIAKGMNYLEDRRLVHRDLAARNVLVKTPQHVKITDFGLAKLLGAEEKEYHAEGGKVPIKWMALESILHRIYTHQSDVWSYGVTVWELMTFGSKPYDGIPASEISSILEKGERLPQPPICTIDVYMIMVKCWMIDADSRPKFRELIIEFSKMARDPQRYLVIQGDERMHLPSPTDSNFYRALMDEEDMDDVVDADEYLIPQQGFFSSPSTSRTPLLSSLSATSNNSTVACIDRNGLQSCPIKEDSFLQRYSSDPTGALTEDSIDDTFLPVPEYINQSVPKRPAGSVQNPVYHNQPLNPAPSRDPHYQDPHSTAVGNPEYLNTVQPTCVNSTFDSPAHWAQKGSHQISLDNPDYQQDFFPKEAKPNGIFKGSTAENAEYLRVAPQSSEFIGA
Experimental: EGF Receptor kinase activity in cells genetically engineered to express human EGF-R can be measured as described below:
Materiala and Reagents. The following materials and reagents are used
a. EGF Ligand: stock concentration=16.5 μM; EGF 201, TOYOBO, Co., Ltd. Japan.
b. 05-101 (UBI) (a monoclonal antibody recognizing an EGFR extracellular domain).
C. Anti-phosphotyosine antibody (anti-Ptyr) (polyclonal).
d. Detection antibody: Goat anti-rabbit lgG horse radish peroxidase conjugate, TAGO, Inc., Burlingame, Calif.
h. Stock reagents of: • EDTA 100 mM pR 7.0 • Na3VO4 0.5 M • Na4(P2O7) 0.2 M
Procedure. The following protocol is used:
1. Coat ELISA plates (Corning, 96 well, Cat. #25805-96) with 05-101 antibody at 0.5 μg per well in PBS, 150 μL final volume/well, and store overnight at 4° C. Coated plates are good for up to 10 days when stored at 4° C.
2. On day of use, remove coating buffer and replace with blocking buffer (5% Carnation Instant NonFat Dry Milk in PBS). Incubate the plate, shaking, at room temperature (about 23° C. to 25° C) for 30 minutes. Just prior to use, remove blocking buffer and wash plate 4 times with TBST buffer.
1. NIH 3T3/C7 cell line (Honegger, et al., Cell 51:199-209, 1987) can be use for this assay.
2. Choose dishes having 80-90% confluence for the experiment. Trypsinize cells and stop reaction by adding 10% CS DMEM medium. Suspend cells in DMEM medium (10% CS DMEM medium) and centrifuge once at 1000 rpm at room temperature for 5 minutes.
3. Resuspend cells in seeding medium (DMEM, 0.5% bovine serum), and count the cells using trypan blue. Viability above 90% is acceptable. Seed cells in DMEM medium (0.5% bovine serum) at a density of 10,000 cells per well, 100 μL per well, in a 96 well microtiter plate. Incubate seeded cells in 5% CO2 at 37° C. for about 40 hours.
1. Check seeded cells for contamination using an inverted microscope. Dilute drug stock (10 mg/mL in DMSO) 1:10 in DMEM medium, then transfer 5 μL to a test well for a final drug dilution of 1:200 and a final DMSO concentration of 1%. Control wells receive DMSO alone. Incubate in 5% CO2 at 37° C. for one hour.
2. Prepare EGF ligand: dilute stock EGF in DMEM so that upon transfer of 10 μL dilute EGF (1:12 dilution), 25 nM final concentration is attained.
3. Prepare fresh 10 mL HNTG* sufficient for 100 μL per well wherein HNTG* comprises: HNTG stock (2.0 mL), milli-Q H2O (7.3 mL), EDTA, 100 mM, pH 7.0 (0.5 mL), Na3VO4 0.5 M (0.1 mL) and Na4(P2O7), 0.2 M (0.1 mL).
5. After two hours incubation with drug, add prepared EGF ligand to cells, 10 μL per well, to yield a final concentration of 25 nM. Control wells receive DMEM alone. Incubate, shaking, at room temperature, for 5 minutes.
6. Remove drug, EGF, and DMEM. Wash cells twice with PBS. Transfer HNTG* to cells, 100 μL per well. Place on ice for 5 minutes. […]

T1 sequence (P35918 20-1345): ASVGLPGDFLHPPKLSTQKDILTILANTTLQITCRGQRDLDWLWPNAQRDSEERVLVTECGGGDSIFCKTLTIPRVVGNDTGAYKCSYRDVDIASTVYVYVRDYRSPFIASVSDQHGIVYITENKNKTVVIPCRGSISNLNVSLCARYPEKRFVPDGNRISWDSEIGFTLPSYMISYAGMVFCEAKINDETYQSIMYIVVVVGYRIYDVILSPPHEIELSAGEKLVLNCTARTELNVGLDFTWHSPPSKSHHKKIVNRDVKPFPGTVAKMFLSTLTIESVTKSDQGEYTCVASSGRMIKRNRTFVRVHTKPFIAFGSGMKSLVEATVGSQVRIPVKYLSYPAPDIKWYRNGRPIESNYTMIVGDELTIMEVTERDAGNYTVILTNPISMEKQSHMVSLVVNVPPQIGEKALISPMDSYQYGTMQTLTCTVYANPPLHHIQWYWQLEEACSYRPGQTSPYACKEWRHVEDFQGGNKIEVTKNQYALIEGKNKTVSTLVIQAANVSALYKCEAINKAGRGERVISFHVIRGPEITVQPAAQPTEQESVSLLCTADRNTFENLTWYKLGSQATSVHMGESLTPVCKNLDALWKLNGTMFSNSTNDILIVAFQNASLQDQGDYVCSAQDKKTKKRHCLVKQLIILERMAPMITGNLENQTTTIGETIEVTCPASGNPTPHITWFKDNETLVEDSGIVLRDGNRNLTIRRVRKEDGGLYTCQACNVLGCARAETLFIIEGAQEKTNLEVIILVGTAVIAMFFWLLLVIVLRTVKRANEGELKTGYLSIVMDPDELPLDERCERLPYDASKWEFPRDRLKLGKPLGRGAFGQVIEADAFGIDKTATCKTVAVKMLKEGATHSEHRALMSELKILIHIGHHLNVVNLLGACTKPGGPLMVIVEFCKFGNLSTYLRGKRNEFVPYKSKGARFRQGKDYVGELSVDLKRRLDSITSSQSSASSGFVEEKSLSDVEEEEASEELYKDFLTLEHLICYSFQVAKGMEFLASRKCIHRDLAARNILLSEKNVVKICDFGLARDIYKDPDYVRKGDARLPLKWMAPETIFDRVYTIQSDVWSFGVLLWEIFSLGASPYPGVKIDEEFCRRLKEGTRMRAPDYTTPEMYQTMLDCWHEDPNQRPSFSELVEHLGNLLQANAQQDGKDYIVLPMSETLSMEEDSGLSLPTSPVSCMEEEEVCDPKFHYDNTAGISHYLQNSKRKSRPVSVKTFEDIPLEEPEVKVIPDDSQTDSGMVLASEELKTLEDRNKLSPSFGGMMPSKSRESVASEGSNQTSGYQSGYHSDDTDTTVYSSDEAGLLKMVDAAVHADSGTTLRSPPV

Compound	IC50 (FLK-1 receptor)	IC50 (human EGF-R)
Cc1[nH]c(C=C2C(=O)Nc3ncccc32)c(C)c1CCC(=O)O [3-[2,4-dimethyl-5-(2-oxo-1,2-dihydro-pyrrolo[2,3-b]pyridin-3-ylidenemethyl)-1H-pyrrol-3-yl]-propionic acid]	0.15 µM	> 50 µM
Cc1c(CCC(=O)O)c[nH]c1C=C1C(=O)Nc2ncccc21 [3-[4-methyl-5-(2-oxo-1,2-dihydro-pyrrolo[2,3-b]pyridin-3-ylidenemethyl)-1H-pyrrol-3-yl]-propionic acid]	0.96 µM	> 25 µM
O=C1Nc2ncccc2C1=Cc1cnc[nH]1 [3-(3H-imidazol-4-ylmethylene)-1,3-dihydro-pyrrolo[2,3-b]pyridin-2-one]	17.6 µM	> 50 µM
Cc1cc(C)c(C=C2C(=O)Nc3ncccc32)[nH]1 [3-(3,5-dimethyl-1H-pyrrol-2-ylmethylene)-1,3-dihydro-pyrrolo[2,3-b]pyridin-2-one]	2.06 µM	> 100 µM
